This note sets out measurements from patent publication US20130324522A1, “INSECT ODORANT RECEPTOR ANTAGONISTS” (THE ROCKEFELLER UNIVERSITY, priority 2010, published 2013).

Assay type in all cases: cell-based
Assay [1] has as its target T1, Or47a/Or83b (Drosophila melanogaster, UniProt P81921+Q9VNB5).
T1 construct: Full-length cDNAs for mosquito (Anopheles gambiae) odorant receptor (OR1, OR2, OR7, OR8, OR28), and fly (Drosophila melanogaster) odorant receptor (Or47a, Or83b); expressed in transfected cells
T1 sequence (P81921 1-385): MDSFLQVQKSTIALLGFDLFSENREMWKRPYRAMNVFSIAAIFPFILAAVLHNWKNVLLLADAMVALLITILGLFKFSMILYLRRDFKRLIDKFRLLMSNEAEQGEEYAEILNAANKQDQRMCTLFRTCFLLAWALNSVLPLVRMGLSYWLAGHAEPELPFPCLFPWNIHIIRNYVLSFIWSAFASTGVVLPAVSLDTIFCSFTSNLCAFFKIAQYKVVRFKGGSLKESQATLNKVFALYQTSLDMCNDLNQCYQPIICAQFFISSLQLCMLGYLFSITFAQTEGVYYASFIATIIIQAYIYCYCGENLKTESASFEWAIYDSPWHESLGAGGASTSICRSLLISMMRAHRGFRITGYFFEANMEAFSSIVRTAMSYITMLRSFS
T1 sequence (Q9VNB5 1-486): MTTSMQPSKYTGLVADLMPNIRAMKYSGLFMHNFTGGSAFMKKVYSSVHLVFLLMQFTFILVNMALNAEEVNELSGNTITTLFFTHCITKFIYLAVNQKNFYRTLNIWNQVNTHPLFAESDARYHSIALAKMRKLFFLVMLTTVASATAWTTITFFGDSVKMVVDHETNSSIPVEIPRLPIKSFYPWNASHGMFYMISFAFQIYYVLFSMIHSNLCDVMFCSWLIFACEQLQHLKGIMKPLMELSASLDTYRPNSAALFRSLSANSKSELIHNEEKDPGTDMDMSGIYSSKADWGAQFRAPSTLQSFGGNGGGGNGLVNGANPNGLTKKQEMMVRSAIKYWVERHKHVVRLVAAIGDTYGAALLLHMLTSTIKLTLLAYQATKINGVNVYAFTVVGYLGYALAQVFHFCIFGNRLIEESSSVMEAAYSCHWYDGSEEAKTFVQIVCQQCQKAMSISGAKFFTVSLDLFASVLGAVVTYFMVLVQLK
Description: Ca2+-imaging of stable Flip-In T-Rex cell line Or47a/Or83b. The settings on record: for IC50: read-out: IC50 OR47a; for inhibition at 4 µM: read-out: Percent Inhibition OR47a OR83b. Put shortly:
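Flp-In T-REx stable lines (Drosophila Or47a/Or83b or mouse 5HT3), 10,000 cells/well cultured 2 days, induced with tetracycline 1 day before assay.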

For assay [2], the target named is OR28/OR7 (Anopheles gambiae, UniProt A0A1S4GFY3+Q7QCC7). Description: Ca2+-imaging of stable HEK293T cell line OR28/OR7. The following applies: for inhibition at 4 µM: HEK-293T, read-out: Percent Inhibition OR28 OR7. The method in brief: (§1)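 HEK293T stable lines (OR+OR7 co-receptor; TRPM8 single). Ca-4 dye 1.5 hr RT, dark. Compounds ([…] DMSO stock) spiked into odorant plates in HBSS; last two columns DMSO only.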
Chain of OR28/OR7 (A0A1S4GFY3 entry or part of it): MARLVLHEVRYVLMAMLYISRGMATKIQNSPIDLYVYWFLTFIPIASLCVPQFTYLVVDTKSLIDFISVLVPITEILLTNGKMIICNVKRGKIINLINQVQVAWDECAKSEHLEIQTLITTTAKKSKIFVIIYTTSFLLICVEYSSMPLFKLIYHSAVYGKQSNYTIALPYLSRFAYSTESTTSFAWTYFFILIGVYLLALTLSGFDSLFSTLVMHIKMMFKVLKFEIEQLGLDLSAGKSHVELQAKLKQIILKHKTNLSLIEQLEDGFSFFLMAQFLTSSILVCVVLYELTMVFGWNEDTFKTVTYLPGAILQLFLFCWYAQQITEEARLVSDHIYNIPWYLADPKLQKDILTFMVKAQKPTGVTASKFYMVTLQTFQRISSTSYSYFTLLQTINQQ
Chain of OR28/OR7 (Q7QCC7 whole entry): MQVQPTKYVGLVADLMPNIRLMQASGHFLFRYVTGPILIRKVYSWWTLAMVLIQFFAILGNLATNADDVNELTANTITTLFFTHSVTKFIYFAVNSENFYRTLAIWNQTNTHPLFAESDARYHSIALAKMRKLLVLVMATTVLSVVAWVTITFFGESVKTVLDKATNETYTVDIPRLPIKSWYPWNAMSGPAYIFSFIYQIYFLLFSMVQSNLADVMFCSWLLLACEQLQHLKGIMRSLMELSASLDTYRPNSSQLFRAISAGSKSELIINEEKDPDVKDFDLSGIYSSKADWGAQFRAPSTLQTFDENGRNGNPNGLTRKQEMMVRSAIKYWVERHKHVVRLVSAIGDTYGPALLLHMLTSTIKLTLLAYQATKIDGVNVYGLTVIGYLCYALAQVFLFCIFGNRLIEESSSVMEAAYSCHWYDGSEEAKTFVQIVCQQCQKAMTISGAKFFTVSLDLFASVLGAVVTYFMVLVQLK

Assay [3] deals with T2, TRP channel (TRPM8) (Mus musculus, UniProt Q8R4D5).
T2 construct: Full-length cDNAs for mosquito (Anopheles gambiae) odorant receptor (OR1, OR2, OR7, OR8, OR28), and fly (Drosophila melanogaster) odorant receptor (Or47a, Or83b), mouse TRP channel (TRPM8); expressed in transfected cells
T2 sequence (Q8R4D5 whole entry): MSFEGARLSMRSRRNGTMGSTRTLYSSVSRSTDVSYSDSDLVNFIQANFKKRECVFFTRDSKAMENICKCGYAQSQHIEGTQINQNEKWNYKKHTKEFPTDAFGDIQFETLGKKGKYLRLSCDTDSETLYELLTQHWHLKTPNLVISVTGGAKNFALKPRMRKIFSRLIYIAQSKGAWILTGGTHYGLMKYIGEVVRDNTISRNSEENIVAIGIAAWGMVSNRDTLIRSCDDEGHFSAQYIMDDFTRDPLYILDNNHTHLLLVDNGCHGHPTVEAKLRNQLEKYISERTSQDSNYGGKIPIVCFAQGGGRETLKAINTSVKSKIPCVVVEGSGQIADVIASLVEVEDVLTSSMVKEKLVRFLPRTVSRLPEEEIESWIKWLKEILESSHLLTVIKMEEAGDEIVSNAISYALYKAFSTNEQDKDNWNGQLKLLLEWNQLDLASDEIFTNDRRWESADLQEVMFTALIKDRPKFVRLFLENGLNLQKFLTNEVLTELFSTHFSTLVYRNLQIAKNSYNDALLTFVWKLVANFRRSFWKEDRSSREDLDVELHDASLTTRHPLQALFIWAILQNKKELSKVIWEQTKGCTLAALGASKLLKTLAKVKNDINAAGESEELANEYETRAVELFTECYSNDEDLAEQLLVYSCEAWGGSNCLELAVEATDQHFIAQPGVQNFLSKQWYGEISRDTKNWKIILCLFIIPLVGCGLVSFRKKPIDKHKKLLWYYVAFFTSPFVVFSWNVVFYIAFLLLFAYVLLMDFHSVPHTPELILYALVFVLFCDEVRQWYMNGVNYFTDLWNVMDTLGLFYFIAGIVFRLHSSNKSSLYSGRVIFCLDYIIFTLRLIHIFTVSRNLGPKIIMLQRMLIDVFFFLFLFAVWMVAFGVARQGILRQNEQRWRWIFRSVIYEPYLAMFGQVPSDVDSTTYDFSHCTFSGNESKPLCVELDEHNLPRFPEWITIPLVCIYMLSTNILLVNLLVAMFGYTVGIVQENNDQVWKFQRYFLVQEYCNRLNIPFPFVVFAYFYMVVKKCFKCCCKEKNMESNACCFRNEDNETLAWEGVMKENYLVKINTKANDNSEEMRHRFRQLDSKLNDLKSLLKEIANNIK
Nature of the assay: Ca2+-imaging of stable HEK293T cell line TRPM8. The settings on record: HEK-293T; compound applied at 4 μM; read-out: Percent Inhibition TRPM8. The method in brief: as §1

Read-outs that look alike come from different tables or passages of the source.

As for `COCCCN(CC(=O)N1CCc2sccc2C1c1ccc(OC)cc1)C(=O)C(C)(C)CCl` (stereo not shown) [RU-0069950], the IC50 in assay [1] (Table B) is above 1000 nM; in assay [2] (Table B, read-out: IC50 OR28), below 100 nM. Besides, the inhibition at 4 µM in assay [1] (compound applied at 4 μM) was 51 to 74%; in assay [2] (compound applied at 4 μM), above 75%; in assay [3] it was below 25%.
The corresponding values for `CCOc1ccccc1C(=O)NNC(=O)COc1cc(C)cc(C)c1` [RU-0023245] are above 1000 nM, above 1000 nM, above 75%, above 75% and below 25%.
The corresponding values for `COc1ccc(C(=O)c2ccccc2)c(O)c1O` [RU-0001617] are above 1000 nM, above 1000 nM, 51 to 74%, 51 to 74% and below 25%.
In the same order, the values of `COc1ccccc1N1CCN(C(=O)c2cc3n(n2)CCN(Cc2c(F)cccc2Cl)C3=O)CC1` [RU-0043595] are above 1000 nM, below 100 nM, 51 to 74%, above 75% and below 25%.
As to `CN(Cc1ccccc1)C(=O)CCC1CCN(C(=O)CCOc2ccccc2)CC1` [RU-0028727], the IC50 is below 100 nM in assay [1] (Table B) and below 100 nM in assay [2] (Table B, read-out: IC50 OR28). The inhibition at 4 µM in assay [1] (compound applied at 4 μM) is above 75%; in assay [2] (compound applied at 4 μM), above 75%; in assay [3] it was 26 to 50%.
For `CC(NCc1ccccc1)c1nc2ccccc2c(=O)n1-c1ccc(Cl)cc1` (stereo not shown) [RU-0072535], the inhibition at 4 µM is 26 to 50% in assay [1] (compound applied at 4 μM), above 75% in assay [2] (compound applied at 4 μM) and below 25% in assay [3]. Besides, the concentration for half-maximal inhibition (IC50) in assay [2] (Table B, read-out: IC50 OR28) is below 100 nM.
With `COC(=O)C(Cc1ccccc1)NC(=O)C1CC1(c1ccccc1)c1ccccc1` (stereo not shown) [RU-0028029], the half-inhibitory concentration (IC50) in assay [1] (Table B) is above 1000 nM; in assay [2] (Table B, read-out: IC50 OR28), below 100 nM. The inhibition at 4 µM in assay [1] (compound applied at 4 μM) is above 75%; in assay [2] (compound applied at 4 μM) it was 51 to 74%; in assay [3], 26 to 50%.
Regarding `COc1ccc(N2CCN(C(=O)C3CC=CCC3C(=O)NCCCCc3ccccc3)CC2)cc1` (stereo not shown) [RU-0026167], the half-maximal inhibitory concentration (IC50) in assay [1] (Table B) was above 1000 nM; in assay [2] (Table B, read-out: IC50 OR28) it was below 100 nM. Also, the values for the inhibition at 4 µM in assay [1] (compound applied at 4 μM), in assay [2] (compound applied at 4 μM) and in assay [3] were 51 to 74%, 51 to 74% and 26 to 50%, respectively.
On to `COc1nc(NC(C)C)nc(NC(C)C)n1` [RU-0001534], for which the IC50 is above 1000 nM in assay [1] (Table B) and below 100 nM in assay [2]. Besides, the results for the inhibition at 4 µM in assay [1] (compound applied at 4 μM), in assay [2] and in assay [3] were 51 to 74%, above 75% and below 25%, respectively.
For the compound `CCN(CC)C(=O)Oc1ccc2c(ccn2Cc2cccc(C)c2)c1NC(=O)[C@H](C)OC(C)=O` [RU-0075468], the inhibition at 4 µM is below 25% in assay [1] (compound applied at 4 μM), above 75% in assay [2] (compound applied at 4 μM) and below 25% in assay [3]. For the same compound, in assay [2] (Table B, read-out: IC50 OR28), the IC50 was below 100 nM.
Turning to `CN(C)c1nc(N(C)C)nc(N(C)C)n1` [RU-0000619], the IC50 in assay [1] (Table B) was above 1000 nM; in assay [2] (Table B, read-out: IC50 OR28) it was below 100 nM. The inhibition at 4 µM in assay [1] (compound applied at 4 μM) was 51 to 74%; in assay [2] (compound applied at 4 μM) it was 51 to 74%; in assay [3] it was below 25%.
As to `COCCNC(=O)c1ccc(CSc2nnc(-c3ccc(C)cc3)n2-c2ccccc2F)cc1` [RU-0051652], the inhibition at 4 µM in assay [1] (compound applied at 4 μM) was below 25%; in assay [2] (compound applied at 4 μM) it was 51 to 74%; in assay [3], below 25%. Moreover, the IC50 in assay [2] (Table B, read-out: IC50 OR28) was above 1000 nM.
With `COc1ccc(N2CCN(C(=O)C3CC=CCC3C(=O)NC(c3ccccc3)c3ccccn3)CC2)cc1` (stereo not shown) [RU-0026507], the inhibition at 4 µM was 26 to 50% in assay [1] (compound applied at 4 μM), above 75% in assay [2] (compound applied at 4 μM) and below 25% in assay [3]. For the same compound, the IC50 in assay [2] (Table B, read-out: IC50 OR28) is above 1000 nM.
In the same order, the values of `Cc1ccc(CN(Cc2ccc(F)cc2)C(=O)CN(C(=O)NC(C)(C)C)C2CC2)s1` [RU-0052360] are 26 to 50%, above 75%, 26 to 50% and 100 to 1000 nM.
As for `Cc1cc(C)c2c(c1C(=O)N1CCC3(CC1)C(=O)NCN3c1ccccc1)CC(C)(C)C2=O` [RU-0025771], the IC50 in assay [1] is above 1000 nM. The inhibition at 4 µM is above 75% in assay [1], above 75% in assay [2] (compound applied at 4 μM) and 26 to 50% in assay [3].
For `CCOC(=O)C(c1cccc(OC)c1)C1C=CC(NC(=O)c2cccs2)C1` (stereo not shown) [RU-0074560], the results for the inhibition at 4 µM in assay [1] (compound applied at 4 μM), in assay [2] (compound applied at 4 μM) and in assay [3] were 26 to 50%, 51 to 74% and below 25%, respectively. Moreover, the IC50 in assay [2] (Table B, read-out: IC50 OR28) is above 1000 nM.
The corresponding values for `CC(NC(=O)c1cc2n(n1)CCN(Cc1c(Cl)cccc1Cl)C2=O)c1ccccc1` (stereo not shown) [RU-0045115] are 26 to 50%, above 75%, below 25% and below 100 nM.
The corresponding values for `Cc1ccc(CN(CCc2ccccc2)C(=O)CN(C(=O)NC(C)(C)C)C(C)C)o1` [RU-0072008] are 26 to 50%, above 75%, below 25% and below 100 nM.
As for `CCOC(=O)C(c1ccc(OC)c(OC)c1)C1C=CC(NC(=O)c2ccc3c(c2)OCO3)C1` (stereo not shown) [RU-0049030], the inhibition at 4 µM in assay [1] (compound applied at 4 μM) was 26 to 50%; in assay [2] (compound applied at 4 μM), above 75%; in assay [3], below 25%. In assay [2] (Table B, read-out: IC50 OR28), the IC50 is below 100 nM.
In the same order, the values of `COCCCN(CC(=O)N1CCc2sccc2C1COc1cccc(OC)c1)C(=O)c1ccccc1OC` (stereo not shown) [RU-0036294] are 51 to 74%, above 75%, 26 to 50% and 100 to 1000 nM.
The corresponding values for `C=C[C@@](C)(O)CCC1C(=C)CCC2[C@@](C)(CO)CCC[C@]12C` (stereo partly shown) [RU-0001327] are below 25%, above 75%, below 25% and above 1000 nM.
The corresponding values for `COc1cc(OC)cc(C2NC(=O)N(C)C3=C2C(=O)N(C2CCCCC2)C3)c1` (stereo not shown) [RU-0047750] are 26 to 50%, above 75%, below 25% and above 1000 nM.
`COCCCN(CC(=O)N1CCc2sccc2C1COc1cccc(OC)c1)C(=O)Cc1ccccc1` (stereo not shown) [RU-0036264]: the figures for the inhibition at 4 µM in assay [1] (compound applied at 4 μM), in assay [2] (compound applied at 4 μM) and in assay [3] were below 25%, 51 to 74% and 26 to 50%, respectively. In addition, the concentration for half-maximal inhibition (IC50) in assay [2] (Table B, read-out: IC50 OR28) was in the range of 100 to 1000 nM.
In the same order, the values of `COc1ccc(-c2nnc(SCc3ccc(C#N)cc3)n2-c2ccc(C)cc2)cc1` [RU-0046426] are 26 to 50%, above 75%, below 25% and above 1000 nM.
On to `COCCN(Cc1cc(Cl)ccc1OS(=O)(=O)c1ccc(F)cc1)C(=O)C1CCC1` [RU-0035287], for which the half-inhibitory concentration (IC50) was below 100 nM in assay [1] (Table B) and below 100 nM in assay [2] (Table B, read-out: IC50 OR28). The inhibition at 4 µM in assay [1] (compound applied at 4 μM) is 51 to 74%; in assay [2] (compound applied at 4 μM), above 75%; in assay [3] it was below 25%.
Take `COc1nc(OCC#N)nc(N2CCCCC2)n1` [RU-0006256]: the IC50 in assay [1] (Table B) was above 1000 nM; in assay [2] (Table B, read-out: IC50 OR28) it was below 100 nM. Further, the inhibition at 4 µM is 51 to 74% in assay [1] (compound applied at 4 μM), above 75% in assay [2] (compound applied at 4 μM) and 26 to 50% in assay [3].
In the case of `CCOCCCN(CC(=O)N(Cc1ccc2c(c1)OCO2)Cc1sccc1C)C(=O)NC(C)(C)C` [RU-0052340], the inhibition at 4 µM was 26 to 50% in assay [1] (compound applied at 4 μM), above 75% in assay [2] (compound applied at 4 μM) and below 25% in assay [3]. The half-maximal inhibitory concentration (IC50) in assay [2] (Table B, read-out: IC50 OR28) is below 100 nM.
As to `CCCCc1nc(CN2CCc3c([nH]c4ccccc34)C2c2cccc(OC)c2OC)c[nH]1` (stereo not shown) [RU-0031879], the IC50 in assay [1] (Table B) was above 1000 nM; in assay [2] (Table B, read-out: IC50 OR28), below 100 nM. Also, the inhibition at 4 µM in assay [1] (compound applied at 4 μM) is 51 to 74%; in assay [2] (compound applied at 4 μM) it was above 75%; in assay [3], 26 to 50%.
